Test results taken from ChEMBL document CHEMBL2384960, “Anti-inflammatory secondary metabolites from the leaves of Rosa laevigata” (Bioorg Med Chem, 2013).
Calls of active or inactive are those of the source. The rule behind the calls is not given here.

Assays:
[1] = (§1) Inhibition of LPS-induced NF-kappaB activation in HEK293 cells incubated for 4 hrs prior to LPS challenge measured after 48 hrs by luciferase reporter gene assay; format: cell-based; details: Homo sapiens
HEK293 = test: as §1; format: cell-based; details: Homo sapiens
RAW264.7 [2] = test: Antiinflammatory activity in mouse RAW264.7 cells assessed as inhibition of LPS-induced IL-6 release at 0.5 to 100 ug/ml incubated for 4 hrs prior to LPS challenge measured after 24 hrs by ELISA; format: functional, cell-based
RAW264.7 [3] = test: Antiinflammatory activity in mouse RAW264.7 cells assessed as inhibition of LPS-induced TNF-alpha release at 0.5 to 100 ug/ml incubated for 4 hrs prior to LPS challenge measured after 24 hrs by ELISA; format: functional, cell-based
RAW264.7 [4] = test: Cytotoxicity against mouse RAW264.7 cells up to 50 ug/ml after 24 hrs by MTT assay in presence of LPS; format: cell-based; details: raw264.7, 24 h
RAW264.7 [5] = test: Antiinflammatory activity in mouse RAW264.7 cells assessed as inhibition of LPS-induced IL-1beta release at 0.5 to 100 ug/ml incubated for 4 hrs prior to LPS challenge measured after 24 hrs by ELISA; format: functional, cell-based
RAW264.7 [6] = test: Antiinflammatory activity in mouse RAW264.7 cells assessed as inhibition of LPS-induced IL-10 release at 0.5 to 100 ug/ml incubated for 4 hrs prior to LPS challenge measured after 24 hrs by ELISA; format: functional, cell-based
RAW264.7 [7] = test: Antiinflammatory activity in mouse RAW264.7 cells assessed as inhibition of LPS-induced TNF-alpha release incubated for 4 hrs prior to LPS challenge measured after 24 hrs by ELISA; format: functional, cell-based
RAW264.7 [8] = test: Antiinflammatory activity in mouse RAW264.7 cells assessed as inhibition of LPS-induced IL-10 release incubated for 4 hrs prior to LPS challenge measured after 24 hrs by ELISA; format: functional, cell-based
RAW264.7 [9] = test: Antiinflammatory activity in mouse RAW264.7 cells assessed as inhibition of LPS-induced IL-6 release incubated for 4 hrs prior to LPS challenge measured after 24 hrs by ELISA; format: functional, cell-based
RAW264.7 [10] = test: Antiinflammatory activity in mouse RAW264.7 cells assessed as inhibition of LPS-induced IL-1beta release incubated for 4 hrs prior to LPS challenge measured after 24 hrs by ELISA; format: functional, cell-based

Row | IC50 [1] [µM] | IC50 (RAW264.7 [7]) [µM] | IC50 (RAW264.7 [8]) [µM] | IC50 (RAW264.7 [9]) [µM] | IC50 (RAW264.7 [10]) [µM] | SMILES | inhibition (HEK293) | inhibition (RAW264.7 [2]) | inhibition (RAW264.7 [3]) | Activity (RAW264.7 [4]) | inhibition (RAW264.7 [5]) | inhibition (RAW264.7 [6])
1 | 65.6 | – | – | – | – | C[C@]1(CO)CC[C@]2(C(=O)O[C@@H]3O[C@H](CO)[C@@H](O)[C@H](O)[C@H]3O)CC[C@]3(C)C(=C2C1)CC[C@@H]1[C@@]2(C)C[C@@H](O)[C@H](O)[C@@](C)(CO)[C@@H]2CC[C@]13C | Dose-dependent effect | Active | Active | Non-toxic | Active | Active
2 | 175 | – | – | – | – | C[C@@H]1CC[C@]2(C(=O)O)CC[C@]3(C)C(=CC[C@@H]4[C@@]5(C)C[C@@H](O)[C@@H](O)C(C)(C)[C@@H]5CC[C@]43C)[C@@H]2[C@]1(C)O [EUSCAPHIC ACID] | Dose-dependent effect | – | – | Non-toxic | – | –
3 | 79 | – | – | – | – | C[C@@H]1CC[C@]2(C(=O)O)CC[C@]3(C)C(=CC[C@@H]4[C@@]5(C)C[C@@H](O)[C@H](O)[C@@](C)(CO)[C@@H]5CC[C@]43C)[C@@H]2[C@]1(C)O | Dose-dependent effect | Active | Active | Non-toxic | Active | Active
4 | 23.2 | 14.3 | 10.4 | 8.04 | 8.53 | C[C@@H]1CC[C@]2(C(=O)O)CC[C@]3(C)C(=CC[C@@H]4[C@@]5(C)C[C@@H](O)[C@@H](O)[C@@](C)(CO)[C@@H]5CC[C@]43C)[C@@H]2[C@]1(C)O | Dose-dependent effect | Active | Active | Non-toxic | Active | Active
